From the CheMixHub drug solubility set

Assay: xn = mol fraction of the nth substance listed, in the solute-free solvent

CN1CCN(C2=Nc3cc(Cl)ccc3Nc3ccccc32)CC1 + CC#N + O
solubility (g/100 g solution)
Details | x2 = 0.04651 | x2 = 0.0989 | x2 = 0.1583 | x2 = 0.2264 | x2 = 0.3051 | x2 = 0.397 | x2 = 0.506 | x2 = 0.6372 | x2 = 0.798
278.15 K | 0.00519 | 0.0208 | 0.0473 | 0.113 | 0.207 | 0.366 | 0.609 | 0.903 | 1.23
283.15 K | 0.00691 | 0.0265 | 0.0589 | 0.138 | 0.248 | 0.431 | 0.707 | 1.04 | 1.39
288.15 K | 0.00905 | 0.034 | 0.0735 | 0.168 | 0.296 | 0.507 | 0.817 | 1.18 | 1.55
293.15 K | 0.0119 | 0.0432 | 0.0905 | 0.2 | 0.347 | 0.589 | 0.938 | 1.34 | 1.73
298.15 K | 0.0151 | 0.0532 | 0.111 | 0.238 | 0.41 | 0.682 | 1.08 | 1.5 | 1.95
303.15 K | 0.0193 | 0.0662 | 0.135 | 0.283 | 0.481 | 0.794 | 1.22 | 1.7 | 2.16
308.15 K | 0.0247 | 0.0831 | 0.164 | 0.336 | 0.558 | 0.91 | 1.39 | 1.92 | 2.39
313.15 K | 0.0308 | 0.101 | 0.197 | 0.398 | 0.642 | 1.05 | 1.56 | 2.11 | 2.64
318.15 K | 0.0384 | 0.123 | 0.233 | 0.465 | 0.746 | 1.19 | 1.75 | 2.37 | 2.91
323.15 K | 0.0473 | 0.15 | 0.281 | 0.542 | 0.855 | 1.35 | 1.96 | 2.63 | 3.2
328.15 K | 0.059 | 0.178 | 0.335 | 0.625 | 0.985 | 1.53 | 2.18 | 2.9 | 3.49

Nc1ccc(Oc2ccc(N)cc2)cc1 + CS(C)=O + CCO
solubility (g/100 g solution)
Details | 293.15 K | 298.15 K | 303.15 K | 308.15 K | 313.15 K | 318.15 K | 323.15 K | 328.15 K | 333.15 K
x2 = 0.06154 | 0.705 | 0.952 | 1.2 | 1.28 | 1.56 | 1.81 | 2.13 | 2.45 | 2.97
x2 = 0.1286 | 1.54 | 1.73 | 2.16 | 2.39 | 2.54 | 3.27 | 3.57 | 4.14 | 4.81
x2 = 0.2019 | 2.84 | 3.16 | 3.74 | 4.14 | 4.64 | 5.35 | 5.87 | 6.46 | 7.63
x2 = 0.2824 | 5.08 | 5.51 | 6.34 | 6.77 | 7.36 | 8.3 | 9.1 | 10.2 | 11.8
x2 = 0.3711 | 8.32 | 8.84 | 9.8 | 10.4 | 11.4 | 12.3 | 13.3 | 14.7 | 16.3
x2 = 0.4696 | 12.3 | 13.1 | 14.1 | 15 | 16 | 17.2 | 18.2 | 19.7 | 21.4
x2 = 0.5793 | 17 | 18.3 | 19.1 | 20.1 | 21 | 22.4 | 23.4 | 24.9 | 26.6
x2 = 0.7024 | 22 | 23.1 | 24 | 24.9 | 25.9 | 26.9 | 28.1 | 29.7 | 31.3
x2 = 0.8416 | 26.8 | 27.7 | 28.6 | 29.6 | 30.2 | 31.6 | 32.7 | 34.1 | 35.7

CN1CCN(C2=Nc3cc(Cl)ccc3Nc3ccccc32)CC1 + C1CCOC1 + Cc1ccccc1
solubility (g/100 g solution)
Details | x2 = 0.1243 | x2 = 0.242 | x2 = 0.3539 | x2 = 0.4601 | x2 = 0.5602 | x2 = 0.6569 | x2 = 0.749 | x2 = 0.8361 | x2 = 0.9197
293.15 K | 3.93 | 5.65 | 8.04 | 9.98 | 13 | 15.3 | 17.5 | 20.9 | 23.9
298.15 K | 4.3 | 6.76 | 8.83 | 11.7 | 14.2 | 16.5 | 20.5 | 22.2 | 25.6
303.15 K | 5.04 | 7.34 | 9.84 | 13.1 | 15.8 | 18.8 | 21.9 | 25 | 28.1
308.15 K | 6.11 | 8.39 | 11.2 | 14.4 | 17.5 | 20.6 | 24 | 26 | 29.8
313.15 K | 7.2 | 9.63 | 12.2 | 16.4 | 19.5 | 22.7 | 25.9 | 29 | 31.9
318.15 K | 8.19 | 10.7 | 14.6 | 18.1 | 21.4 | 24.9 | 27.9 | 30.5 | 33.7
323.15 K | 8.82 | 12.2 | 15.9 | 20.1 | 23.6 | 27 | 29.6 | 33.1 | 36.6

CC(N)C(=O)O (centres undefined) + O + CCO
solubility (g/100 g solution)
Details | x2 = 0.1 | x2 = 0.2 | x2 = 0.3 | x2 = 0.4 | x2 = 0.5 | x2 = 0.6 | x2 = 0.7 | x2 = 0.8 | x2 = 0.9
283.15 K | 0.0667 | 0.0909 | 0.102 | 0.126 | 0.31 | 0.534 | 1.1 | 1.98 | 4.36
293.15 K | 0.0741 | 0.0951 | 0.11 | 0.185 | 0.389 | 0.66 | 1.35 | 2.59 | 5.5
303.15 K | 0.0895 | 0.102 | 0.127 | 0.245 | 0.454 | 0.83 | 1.68 | 3.23 | 6.66
313.15 K | 0.0998 | 0.114 | 0.136 | 0.268 | 0.573 | 1.05 | 2.12 | 3.96 | 7.99
323.15 K | 0.104 | 0.124 | 0.196 | 0.347 | 0.688 | 1.37 | 2.62 | 4.97 | 9.53

c1ccc2[nH]c(-c3cscn3)nc2c1 + CC#N + O
solubility (g/100 g solution)
Details | 283.15 K | 288.15 K | 293.15 K | 298.15 K | 303.15 K | 308.15 K | 313.15 K | 318.15 K | 323.15 K
x2 = 0.04651 | 0.00121 | 0.00153 | 0.00195 | 0.00251 | 0.00312 | 0.00391 | 0.00486 | 0.00604 | 0.00759
x2 = 0.0989 | 0.00381 | 0.0048 | 0.0062 | 0.00795 | 0.00993 | 0.0122 | 0.0152 | 0.0184 | 0.0223
x2 = 0.1583 | 0.00804 | 0.0102 | 0.013 | 0.0163 | 0.0204 | 0.0251 | 0.0307 | 0.0373 | 0.0446
x2 = 0.2264 | 0.0137 | 0.0175 | 0.0219 | 0.027 | 0.0332 | 0.0403 | 0.0487 | 0.0587 | 0.0699
x2 = 0.3051 | 0.0203 | 0.0246 | 0.0311 | 0.0385 | 0.0467 | 0.0564 | 0.0675 | 0.0804 | 0.0944
x2 = 0.397 | 0.0272 | 0.0332 | 0.0403 | 0.049 | 0.0593 | 0.0713 | 0.0845 | 0.1 | 0.118
x2 = 0.506 | 0.0343 | 0.0409 | 0.0505 | 0.0604 | 0.0718 | 0.0849 | 0.1 | 0.121 | 0.141
x2 = 0.6372 | 0.0418 | 0.0499 | 0.0602 | 0.0732 | 0.0874 | 0.103 | 0.123 | 0.145 | 0.168
x2 = 0.798 | 0.0476 | 0.0573 | 0.0693 | 0.0823 | 0.0998 | 0.118 | 0.14 | 0.163 | 0.188
